Where “and” joins values, the source holds several entries; their conditions need not be identical. Equal entries are not always repeated. Where two headings read alike, the source gives them in different places.
System: Klebsiella pneumoniae
Assay: microbe, parasite or virus in culture
Type: cell-based
Conditions: for MIC90: read-out: MIC90
In short: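 Test organisms were KPC-producing clinical isolates (some enriched for porin mutations), matched isolates that lost KPC plasmids, and engineered porin/efflux mutant strains. Susceptibility was measured by broth microdilution following CLSI methods, using panels prepared in-house.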

[1] = Klebsiella pneumoniae, 575 isolates
[2] = Klebsiella pneumoniae, K. pneumoniae CRE, 418 isolates
[3] = Klebsiella pneumoniae, K. pneumoniae CRE, KPC, 163 isolates
[4] = Klebsiella pneumoniae, K. pneumoniae CRE, OXA-48-like, 89 isolates
[5] = Klebsiella pneumoniae, K. pneumoniae CRE, metallo-beta-lactamase, 126 isolates
[6] = Klebsiella pneumoniae, K. pneumoniae CRE, non-carbapenemase producing, 40 isolates
[7] = Klebsiella pneumoniae, K. pneumoniae ESBL phenotype, 157 isolates
[8] = Klebsiella pneumoniae, KPC-producing clinical strains with functional OmpK36, alone
[9] = Klebsiella pneumoniae, KPC-producing clinical strains with nonfunctional OmpK36, alone
[10] = Klebsiella pneumoniae, KPC-producing clinical strains, all strains (n = 141), alone

## O=C(O)c1c(F)ccc2c1OB(O)[C@@H]1C[C@H]21 [Xeruborbactam]
228 isolates with the full-length OmpK36
  isolates with MIC values in an 8- to 16-μg/mL range: ~ 95%
K. pneumoniae ESBL phenotype, 157 isolates
  MIC range: 4 to 32 µg/mL
K. pneumoniae clinical isolates, OmpK36 full length (n=228)
  percentage of strains with xeruborbactam MIC values ≥32 µg/ml: 5.3%
Klebsiella pneumoniae KPM1001 (ATCC 49816)
  MIC: 16 µg/mL
Klebsiella pneumoniae KPM1001 (ATCC 49816), read-out: MIC
  MIC: 72 µM
[1]
  MIC50: 16 µg/mL
  MIC90: 32 µg/mL
Klebsiella pneumoniae, ATCC49816, Klebsiella pneumoniae KPM1001 (ATCC 49816), read-out: MIC
  MIC: 72 µM and 16 µg/mL
Klebsiella pneumoniae, BAA2814, KPC-3-producing KP1074 (BAA-2814), xeruborbactam none, read-out: MIC
  MIC: 16 to 32 µg/mL
[2]
  MIC50: 16 µg/mL
  MIC90: 32 µg/mL
[3]
  MIC50: 16 µg/mL
  MIC90: 32 µg/mL
[4]
  MIC50: 16 µg/mL
  MIC90: 64 µg/mL
[5]
  MIC50: 16 µg/mL
  MIC90: 32 µg/mL
[6]
  MIC50: 16 µg/mL
  MIC90: 32 µg/mL
[7]
  MIC50: 16 µg/mL
  MIC90: 16 µg/mL
[8]
  MIC50: 16 µg/mL
  MIC90: > 16 µg/mL
[9]
  MIC50: > 16 µg/mL
  MIC90: > 16 µg/mL
[10]
  MIC50: > 16 µg/mL
  MIC90: > 16 µg/mL
Klebsiella pneumoniae, KPM1026a (no beta-lactamase), xeruborbactam 0 µg/ml, read-out: MIC
  MIC: 16 µg/mL
Klebsiella pneumoniae, KPM1026a, alone, read-out: MIC
  MIC: 16 µg/mL
Klebsiella pneumoniae, KPM1026a, parent, read-out: MIC
  MIC: 16 µg/mL
Klebsiella pneumoniae, KPM1211 (KP1074 after loss of pKpQIL), read-out: MIC
  MIC: 16 to 32 µg/mL
Klebsiella pneumoniae, KPM1271 (KPC-3; wild type), alone, read-out: MIC
  MIC: 16 µg/mL
Klebsiella pneumoniae, KPM1271 (KPM1026a/KPC-3), alone, read-out: MIC
  MIC: 16 µg/mL
Klebsiella pneumoniae, KPM1272 (KPC-3; ramR_fs), alone, read-out: MIC
  MIC: 16 µg/mL
Klebsiella pneumoniae, KPM1273 (KPC-3; ramR_fs ompK36_1171), alone, read-out: MIC
  MIC: 64 µg/mL
Klebsiella pneumoniae, KPM1281 (KPM1026a/NDM-1), alone, read-out: MIC
  MIC: 16 µg/mL
Klebsiella pneumoniae, KPM2067 (KPC-3; ompK36_fs), alone, read-out: MIC
  MIC: 16 µg/mL
Klebsiella pneumoniae, KPM2601 (KPC-3; ΔompK35), alone
  MIC: 16 µg/mL
Klebsiella pneumoniae, KPM2631 (KPC-3; ompK36_fs ΔompK35), alone
  MIC: 32 µg/mL
Klebsiella pneumoniae, KPM3532 (TolQ::M189K), alone
  MIC: 32 µg/mL
Klebsiella pneumoniae, KPM3532, TolQ::M189K
  MIC: 32 µg/mL
Klebsiella pneumoniae, KPM3534 (TolQ::S31F), alone
  MIC: 32 µg/mL
Klebsiella pneumoniae, KPM3534, TolQ::S31F
  MIC: 32 µg/mL
Klebsiella pneumoniae, KPM4127 (KPM3532 TolQ::M189K/KPC-3), alone
  MIC: 32 µg/mL
Klebsiella pneumoniae, KPM4128 (KPM3534 TolQ::S31F/KPC-3), alone
  MIC: 32 µg/mL
Klebsiella pneumoniae, KPM4129 (KPM3532 TolQ::M189K/NDM-1), alone
  MIC: 32 µg/mL
Klebsiella pneumoniae, KPM4130 (KPM3534 TolQ::S31F/NDM-1), alone
  MIC: 32 µg/mL
Klebsiella pneumoniae, KPM4235, TolQ::IP(183–1844)PR
  MIC: 32 µg/mL
Klebsiella pneumoniae, KPM4236, TolQ::TAA at aa 103
  MIC: 32 µg/mL
Klebsiella pneumoniae, KPM4238, TolQ::S25F
  MIC: 32 µg/mL
Klebsiella pneumoniae, KPM4239, TolQ::S28F
  MIC: 32 µg/mL
Klebsiella pneumoniae, KPM4240, TolQ::S25Y
  MIC: 32 µg/mL
Klebsiella pneumoniae, Klebsiella pneumoniae isolates, read-out: highest MIC observed
  MIC: 64 µg/mL
Klebsiella pneumoniae, clinical isolate KP1004, OmpK35 NF, OmpK36 FN, read-out: MIC
  MIC: 16 µg/mL
Klebsiella pneumoniae, clinical isolate KP1070, OmpK35 NF, OmpK36 FN, read-out: MIC
  MIC: 8 µg/mL
Klebsiella pneumoniae, clinical isolate KP1074, OmpK35 NF, OmpK36 PFN (GD), read-out: MIC
  MIC: 32 µg/mL
Klebsiella pneumoniae, clinical isolate KP1093, OmpK35 NF, OmpK36 PFN (GD), read-out: MIC
  MIC: 32 µg/mL
Klebsiella pneumoniae, clinical isolate KP1251, OmpK35 NF, OmpK36 FN, read-out: MIC
  MIC: 16 µg/mL
Klebsiella pneumoniae, clinical isolate KP1274, OmpK35 FN, OmpK36 FN, read-out: MIC
  MIC: 8 µg/mL
Klebsiella pneumoniae, clinical isolate KP1463, OmpK35 NF, OmpK36 NF, read-out: MIC
  MIC: 64 µg/mL
Klebsiella pneumoniae, clinical isolate KP1469, OmpK35 NF, OmpK36 NF, read-out: MIC
  MIC: 64 µg/mL

Reference: article PMC9578396, “Intrinsic Antibacterial Activity of Xeruborbactam In Vitro: Assessing Spectrum and Mode of Action” (Antimicrobial Agents and Chemotherapy, 2022)
